Series [1] is described as follows: pH of the water solution. The conditions noted are these: water solution obtained in the preparation. The class given is physicochemical. On the procedure: After about 10 minutes of stirring under the above conditions, a 50% solution of 14 g of lysine base was slowly added. The reaction mixture was little by little solubilized and the pH final value of the resulting solution was 7.5. The volume of the obtained solution was brought to the end value of 150 mls by adding cold distilled water. It was then sterile filtered and frozen in a prefreezer at -70° C. and finally lyophilized.

A short description of series [2]: Solubility. The class given is physicochemical. As to conditions: for Solubility in alcohols: ethanol / absolute alcohols.
The nature of series [3]: Cephalexin microbiological title.
The nature of series [4]: Toxicity in the mouse (LD50). The conditions noted are these: in vivo. From the text: (§1) Pharmacological and clinical tests have been carried out with the compounds of the invention and the results related to the lysine salt of 2-N-methylolcephalexin are hereinafter reported for illustrative purpose.
Series [5] can be described thus: clinical. The conditions noted are these: human, in vivo, po.
The nature of series [6]: Toxicity in the rat (LD50). The conditions noted are these: in vivo, po, per os.
Description: as §1

For series [7] the following is noted: well known; cited from earlier work.
The conditions of series [8]: in vivo, po.

Counter-ions that a name gives are not always drawn.

For orientation: LD50 means the dose at which mortality reaches 50%. A low value points to greater toxicity.

As for `CC1=C(C(=O)O)N2C(=O)[C@@H](NC(=O)[C@H](NCO)c3ccccc3)[C@H]2SC1` [Example 1, Lysine salt of 2-N-methylol-cephalexin], the “Final pH of the resulting solution” value in series [1] is given as 7.5. In addition, the Solubility in alcohols entry in series [2] is given as “little soluble in absoluble alcohols”. The Solubility in water result in series [2] is recorded as “cold soluble in water”. Besides, the Cephalexin microbiological title in series [3] was 99 to 100 % of theoretical value. Further, the LD50 is 3100 mg/kg in series [4] (ip, intraperitoneal administration); > 4000 mg/kg in series [4] (oral administration); > 4000 mg/kg in series [6]. The same molecule registered a dose excreted at 24 h in series [5] of 87%.
On to `CC1=C(C(=O)O)N2C(=O)[C@@H](NC(=O)[C@H](NCO)c3ccccc3)[C@H]2SC1` [Example 2, Sodium salt of 2-N-methylol-cephalexin], for which the “Final pH of the resulting solution” value in series [1] is 7.1. Besides, in series [2], the Solubility in alcohols entry is “little soluble in ethanol and absolute alcohols”; the Solubility in water result is given as “highly water soluble”. Also, in series [3], the Cephalexin microbiological title is 99 to 102 % of theoretical value.
Turning to `CC1=C(C(=O)O)N2C(=O)[C@@H](NC(=O)[C@H](N)c3ccccc3)[C@H]2SC1` [cephalexin, 7-(D-2-amino-2-phenylacetamido)-3-methyl-Δ^3-4-carboxylic acid], in series [7], the Antibiotic utility result is listed as “wide spectrum antibiotic”.
`CC1=C(C(=O)O)N2C(=O)[C@@H](NC(=O)[C@H](N)c3ccccc3)[C@H]2SC1` [substance B, cephalexin monohydrated]: in series [8], the “Presence in the blood stream” value is “higher” and the “Time after administration at which actives concentrations are detected” value is on record as “more than 6 hours”.

Values taken from patent US4471115A, “Water soluble derivatives of cephalex and process for their preparation” (Neopharmed S.p.A., priority 1980, dated 1984).
